Values of other authors, collected in patent US6551611B2, “Hormone replacement therapy method” (Schering Aktiengesellschaft, priority 1995, dated 2003).

Details: oral administration

C[C@]12CC[C@@H]3c4ccc(O)cc4CC[C@H]3[C@@H]1CC[C@@H]2O [estradiol]
bioavailability of estradiol orally, average: 5 % of the oral dose
